Source: patent publication US12492223B2, “Peptide compositions capable of binding lanthionine synthetase C-like protein (LanCl) and uses thereof” (priority 2021, dated 2025)
“And” between values parts separate entries of the source, which are not always exact repeats. Equal entries are not always repeated. Where two headings read alike, the source gives them in different places.

Legend:
Chung model rats = test: In vivo model of neuropathic pain (II): spinal nerve ligation (Chung) model, paw withdrawal threshold; set-up: species or system rat; conditions: mean ± SEM, n=6
Procedure: The spinal nerve ligation (Chung) model was prepared as described in Example 4, above. Briefly, sixty-four adult male Sprague-Dawley rats, 8-9 weeks old, weighing 250-350 g at the time of surgery, were purchased from Charles River UK Ltd. The animals were housed in groups of 4 in an air-conditioned room on a 12-hour light/dark cycle. Food and water were available ad libitum. Animals were allowed to acclimatise to the environment for experiments for three days by leaving them on a raised metal mesh for at least 40 minutes. The baseline paw withdrawal threshold (PWT) was examined using a series of graduated von Frey hairs for 3 consecutive days before surgery and re-assessed on the 7th day after surgery and on the 12th to 14th day after surgery before drug dosing.
Each rat was anaesthetized with 5% isoflurane mixed with oxygen (2 L per min) followed by an intramuscular (i.m.) injection of ketamine 60 mg/kg plus xylazine 10 mg/kg. The back was shaved and sterilized with povidone-iodine. The animal was placed in a prone position and a para-medial incision was made on the skin covering the L4-6 level. The L5 spinal nerve was carefully isolated and tightly ligated with 6/0 silk suture. The wound was then closed in layers after a complete haemostasis. A single dose of antibiotics (Amoxipen, 15 mg/rat, i.p.) was routinely given for prevention of infection after surgery. The animals were placed in a temperature-controlled recovery chamber until fully awake before being returned to their home cages.
Animals with validated neuropathic pain state were randomly divided into 4 experimental groups: Vehicle (5% DMSO first then in 0.9% saline), 3 mg/kg LAT9997, 3 mg/kg LAT9997×1, and 3 mg/kg LAT1233×1. Each group contained 6 animals.
RSVEGS (SEQ ID NO:9; LAT9997), SVEGS (SEQ NO: 62; LAT9997×1) and ALNSS (SEQ ID NO:63; LAT1233×1) were dissolved in 5% DMSO first then in 0.9% saline, which also served as the vehicle control. All compounds were provided from GenScript for Lateral Pharma. All vehicle/compounds were administrated intravenously at 1 ml/kg body weight.
The animals were placed in individual Perspex boxes on a raised metal mesh for at least 40 min. Starting from the filament of lowest force (1 gram (g)), each vFH filament was applied perpendicularly to the centre of the ventral surface of the paw until it slightly bent for 6 seconds. If the animal withdrew or lifted its paw upon stimulation, a filament with force immediately lower than that tested was used. If no response was observed, a filament with force immediately higher was then tested. The lowest amount of force required to induce reliable responses (positive in 2 out of 3 trials) was recorded as the value of the PWT.
PWT was assessed once daily for three days before surgery (pre D1, Pre D2 and D0) and on day 7 following surgery for monitoring the development of mechanical allodynia.
All drug tests were carried out on the 13th to 17th day after surgery. […]
One-way analysis of variance (ANOVA) (IBM statistics SPSS, Version 27) was used for statistical analysis to compare PWT of different groups at the same time points. When appropriate, Fisher's Least Significant Difference (LSD) post-hoc test was used to compare drug treatment groups to the control groups. A paired Student's t-test (Microsoft Excel 365) was used to compare values of different time points in the same group. To characterise the drug-induced change in PWT relative to vehicle, vehicle values were subtracted from the appropriate drug values. The significance level was set at P<0.05.

HKx31 (H3N2) = assay type: in vivo, mice; set-up: key to PMN activity score / Viral titre activity score / BAL IL-6 activity score: 0: inactive; 1: less active than the peptide of SEQ ID NO:38; 2: comparable or more active than the peptide of SEQ ID NO:38; conditions: for IL-6 levels in the BAL fluid / viral titres: 10 mg/kg single dose
A549 cells = test: A549 proliferation + stress assay (restoration of viability of Taxol-treated cells, CellTiter-Glo); assay type: cell-based, human; conditions: 350 μM Taxol, 16 hours, peptide 1-100 μM
Procedure: An assay was developed that involves stressing cells with a dose of the chemotherapeutic agent, Taxol, that causes a 50% inhibition of cell viability when compared to untreated cells. Peptides were then added to the cell cultures at increasing concentrations to assess their ability to restore the viability of the Taxol-treated cells.
Briefly, A549 cells were cultured in opaque-walled multiwell plates with 50000 A549 cells/well in culture medium (DMEM medium ref 11960-044 Thermoscientific, +10% FBS ref 10270-106 Gibco, Thermoscientific, +1% Na pyruvate ref S8636-100 ML, Sigma, +1%, Glutamax ref35050061, Thermoscientific, +1% Penicillin-Streptomycin, ref 11074440001, Sigma) 100 μl per well for 96-well plates. Control wells containing medium without cells were used to obtain a value for background luminescence. Cells were incubated at 37° C. in 5% CO2 overnight.
100 μL of medium+DMSO+peptides or medium+Taxol+peptides (at the different concentrations) were added to each well and incubated for 16 hours at 37° C. 5% CO2.
Cell morphology, viability and confluency were assessed by phase contrast microscopy. The CellTiter-Glo® Luminescent Cell Viability Assay (G7571, Promega—a homogeneous method to determine the number of viable cells in culture based on quantitation of the ATP present) was then used to quantify the number of metabolically active cells, according to the manufacturer's instructions. 100 μl volume of CellTiter-Glo® Reagent was added to the 100 μL volume of cell culture medium present in each well, Contents were mixed for 2 minutes on an orbital shaker to induce cell lysis and after incubating the plates at room temperature for 10 minutes to stabilize luminescent signal luminescence was recorded with an integration time of 0.5 seconds using a CLARIOstar multi well luminometer (BMG Labtech)

[1] = 1 hour after 3 mg/kg intravenously
[2] = 2 hours after 3 mg/kg intravenously
[3] = 4 hours after 3 mg/kg intravenously
[4] = 1 hour after 3 mg/kg intravenously, listed as LAT9997
[5] = 2 hours after 3 mg/kg intravenously, listed as LAT9997
[6] = 4 hours after 3 mg/kg intravenously, listed as LAT9997
[7] = Pre-dosing, 3 mg/kg group, listed as LAT9997, 3 mg/kg
[8] = PMN infiltrate in BAL fluid, […], relative to SEQ ID NO:38, 10 mg/kg
[9] = single 10 mg/kg dose, day 3, relative to SEQ ID NO:38
[10] = 1 hour after 3 mg/kg intravenously, listed as LAT1233x1
[11] = 1 hour after 3 mg/kg intravenously, listed as LAT1233×1
[12] = 2 hours after 3 mg/kg intravenously, listed as LAT1233x1
[13] = 2 hours after 3 mg/kg intravenously, listed as LAT1233×1
[14] = 4 hours after 3 mg/kg intravenously, listed as LAT1233x1
[15] = 4 hours after 3 mg/kg intravenously, listed as LAT1233×1
[16] = Pre-dosing, 3 mg/kg group, listed as LAT1233x1, 3 mg/kg
[17] = Pre-dosing, 3 mg/kg group, listed as LAT1233×1, 3 mg/kg

SVEGS [SEQ ID NO: 62]
contralateral Paw withdrawal threshold (Chung model rats; [1]): 15.00 ± 0.00 g | ipsilateral Paw withdrawal threshold (Chung model rats; [1]): 11.17 ± 1.74 ▴** g | contralateral Paw withdrawal threshold (Chung model rats; [2]): 15.00 ± 0.00 g | ipsilateral Paw withdrawal threshold (Chung model rats; [2]): 12.67 ± 1.56 ▴*** g | contralateral Paw withdrawal threshold (Chung model rats; [3]): 15.00 ± 0.00 g | ipsilateral Paw withdrawal threshold (Chung model rats; [3]): 11.00 ± 1.41 ▴** g | contralateral Paw withdrawal threshold (Chung model rats; Pre-dosing, 3 mg/kg group): 15.00 ± 0.00 g | ipsilateral Paw withdrawal threshold (Chung model rats; Pre-dosing, 3 mg/kg group): 3.33 ± 0.42 g

RSVEGS [SEQ ID NO: 9]
contralateral Paw withdrawal threshold (Chung model rats; [4]): 15.00 ± 0.00 g | ipsilateral Paw withdrawal threshold (Chung model rats; [4]): 7.83±1.72 g and 7.83 ± 1.72 ^ g | contralateral Paw withdrawal threshold (Chung model rats; [5]): 15.00 ± 0.00 g | ipsilateral Paw withdrawal threshold (Chung model rats; [5]): 9.67±1.73 g and 9.67 ± 1.73 ▴* g | contralateral Paw withdrawal threshold (Chung model rats; [6]): 15.00 ± 0.00 g | ipsilateral Paw withdrawal threshold (Chung model rats; [6]): 8.17±1.60 g and 8.17 ± 1.60 ^ g | contralateral Paw withdrawal threshold (Chung model rats; [7]): 14.17 ± 0.83 g | ipsilateral Paw withdrawal threshold (Chung model rats; [7]): 3.33 ± 0.42 g

52 (PALNTS) [compound 52]
IL-6 levels in the BAL fluid (HKx31 (H3N2)): as effective | viral titres (HKx31 (H3N2); day 3): effective | PMN activity score (HKx31 (H3N2); [8]): 0 | BAL IL-6 activity score (HKx31 (H3N2); mouse, in vivo, 10 mg/kg): 2 | Viral titre activity score (HKx31 (H3N2); mouse, in vivo, 10 mg/kg): 2 | reducing the PMN infiltrate in BAL fluid, compared with the peptide of SEQ ID NO:38 (HKx31 (H3N2); single 10 mg/kg dose): did not show any changes

63 (ALNSS) [compound 63]
Viral titre activity score (HKx31 (H3N2); [9]): 0 | Estimated Activity in A549 proliferation + stress assay (A549 cells): MODERATE (moderate dose-dependent restoration of cell viability at >25 μM)

ALNSS [SEQ ID NO: 63]
contralateral Paw withdrawal threshold (Chung model rats; [10]): 15.00 ± 0.00 g | ipsilateral Paw withdrawal threshold (Chung model rats; [10]): 10.67 ± 1.67 ▴** g | contralateral Paw withdrawal threshold (Chung model rats; [11]): 15.00 ± 0.00 g | ipsilateral Paw withdrawal threshold (Chung model rats; [11]): 10.67 ± 1.67 g | contralateral Paw withdrawal threshold (Chung model rats; [12]): 14.17 ± 0.83 g | ipsilateral Paw withdrawal threshold (Chung model rats; [12]): 11.50 ± 1.80 ▴** g | contralateral Paw withdrawal threshold (Chung model rats; [13]): 14.17 ± 0.83 g | ipsilateral Paw withdrawal threshold (Chung model rats; [13]): 11.50 ± 1.80 g | contralateral Paw withdrawal threshold (Chung model rats; [14]): 15.00 ± 0.00 g | ipsilateral Paw withdrawal threshold (Chung model rats; [14]): 10.17 ± 1.17 ▴** g | contralateral Paw withdrawal threshold (Chung model rats; [15]): 15.00 ± 0.00 g | ipsilateral Paw withdrawal threshold (Chung model rats; [15]): 10.17 ± 1.17 g | contralateral Paw withdrawal threshold (Chung model rats; [16]): 15.00 ± 0.00 g | ipsilateral Paw withdrawal threshold (Chung model rats; [16]): 3.33 ± 0.42 g | contralateral Paw withdrawal threshold (Chung model rats; [17]): 15.00 ± 0.00 g | ipsilateral Paw withdrawal threshold (Chung model rats; [17]): 3.33 ± 0.42 g

57 (RSVE) [compound 57]
BAL IL-6 activity score (HKx31 (H3N2); IL-6 in BAL fluid, single 10 mg/kg dose, relative to SEQ ID NO:38): 0 | PMN activity score (HKx31 (H3N2); mouse, in vivo, 10 mg/kg): 1 | reducing the PMN infiltrate in BAL fluid, compared with the peptide of SEQ ID NO:38 (HKx31 (H3N2); single 10 mg/kg dose): relatively less effective | Viral titre activity score (HKx31 (H3N2); [9]): 0

56 (RSVEG) [compound 56]
IL-6 levels in the BAL fluid (HKx31 (H3N2)): as effective | viral titres (HKx31 (H3N2); day 3): effective | BAL IL-6 activity score (HKx31 (H3N2); mouse, in vivo, 10 mg/kg): 2 | PMN activity score (HKx31 (H3N2); mouse, in vivo, 10 mg/kg): 2 | Viral titre activity score (HKx31 (H3N2); mouse, in vivo, 10 mg/kg): 2 | reducing the PMN infiltrate in BAL fluid, compared with the peptide of SEQ ID NO:38 (HKx31 (H3N2); single 10 mg/kg dose): as effective

50 (RALQSS) [compound 50]
IL-6 levels in the BAL fluid (HKx31 (H3N2)): as effective | viral titres (HKx31 (H3N2); day 3): effective | BAL IL-6 activity score (HKx31 (H3N2); mouse, in vivo, 10 mg/kg): 2 | PMN activity score (HKx31 (H3N2); mouse, in vivo, 10 mg/kg): 1 | Viral titre activity score (HKx31 (H3N2); mouse, in vivo, 10 mg/kg): 2 | reducing the PMN infiltrate in BAL fluid, compared with the peptide of SEQ ID NO:38 (HKx31 (H3N2); single 10 mg/kg dose): relatively less effective

49 (RALNST) [compound 49]
IL-6 levels in the BAL fluid (HKx31 (H3N2)): as effective | PMN activity score (HKx31 (H3N2); [8]): 0 | BAL IL-6 activity score (HKx31 (H3N2); mouse, in vivo, 10 mg/kg): 2 | Viral titre activity score (HKx31 (H3N2); [9]): 0
